Experiments:
Experiment in all cases: Inhibition Assay of PI3K
[1] = target: T1, Phosphatidylinositol 4,5-bisphosphate 3-kinase catalytic subunit delta isoform (Homo sapiens, UniProt O00329)
T1 sequence (O00329 whole entry): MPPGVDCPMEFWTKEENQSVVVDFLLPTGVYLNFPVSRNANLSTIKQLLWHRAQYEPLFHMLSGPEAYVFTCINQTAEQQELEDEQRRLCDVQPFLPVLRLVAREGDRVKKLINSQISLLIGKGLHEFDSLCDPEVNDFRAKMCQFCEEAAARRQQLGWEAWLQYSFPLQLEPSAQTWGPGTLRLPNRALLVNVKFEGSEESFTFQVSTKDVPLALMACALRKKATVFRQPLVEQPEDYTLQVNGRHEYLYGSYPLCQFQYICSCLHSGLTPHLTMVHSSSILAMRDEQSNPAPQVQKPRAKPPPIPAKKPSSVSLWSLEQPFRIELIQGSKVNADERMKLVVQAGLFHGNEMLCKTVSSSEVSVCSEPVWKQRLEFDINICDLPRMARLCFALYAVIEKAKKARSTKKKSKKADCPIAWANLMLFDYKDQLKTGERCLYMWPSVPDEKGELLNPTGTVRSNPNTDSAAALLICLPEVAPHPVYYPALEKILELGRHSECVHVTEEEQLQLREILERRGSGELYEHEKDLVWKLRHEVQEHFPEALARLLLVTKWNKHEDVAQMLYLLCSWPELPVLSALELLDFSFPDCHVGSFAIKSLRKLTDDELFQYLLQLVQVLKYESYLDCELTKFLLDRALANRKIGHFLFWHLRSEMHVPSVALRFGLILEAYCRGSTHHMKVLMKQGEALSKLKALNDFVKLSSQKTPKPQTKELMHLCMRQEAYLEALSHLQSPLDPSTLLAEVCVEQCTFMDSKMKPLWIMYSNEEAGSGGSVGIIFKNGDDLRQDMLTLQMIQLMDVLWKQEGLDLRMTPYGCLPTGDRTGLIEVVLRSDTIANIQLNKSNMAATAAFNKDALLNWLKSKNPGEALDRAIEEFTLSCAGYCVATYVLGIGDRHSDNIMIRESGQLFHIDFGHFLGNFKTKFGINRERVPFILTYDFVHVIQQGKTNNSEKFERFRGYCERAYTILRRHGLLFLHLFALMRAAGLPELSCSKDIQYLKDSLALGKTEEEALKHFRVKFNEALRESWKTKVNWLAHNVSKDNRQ
Experimental: (§1) An exemplary system is PI 3-Kinase (human) HTRF Assay from Upstate. […] Briefly, the assay is a time resolved FRET assay that indirectly measures PIP3 product formed by the activity of a PI3-K. The kinase reaction is performed in a microtitre plate (e.g., a 384 well microtitre plate). The total reaction volume is approximately 20 ul per well. In the first step, each well receives 2 ul of test compound in 20% dimethylsulphoxide resulting in a 2% DMSO final concentration. Next, approximately 14.5 ul of a kinase/PIP2 mixture (diluted in 1× reaction buffer) is added per well for a final concentration of 0.25-0.3 ug/ml kinase and 10 μM PIP2. The plate is sealed and incubated for 15 minutes at room temperature. To start the reaction, 3.5 ul of ATP (diluted in 1× reaction buffer) is added per well for a final concentration of 10 μM ATP. The plate is sealed and incubated for 1 hour at room temperature. The reaction is stopped by adding 5 ul of Stop Solution per well and then 5 ul of Detection Mix is added per well. The plate is sealed, incubated for 1 hour at room temperature, and then read on an appropriate plate reader.

[2] = target: Phosphatidylinositol 4,5-bisphosphate 3-kinase catalytic subunit beta isoform (Homo sapiens, UniProt P42338)
Experimental: as §1

[3] = target: Phosphatidylinositol 4,5-bisphosphate 3-kinase catalytic subunit gamma isoform (Homo sapiens, UniProt P48736)
Experimental: as §1

[4] = target: Phosphatidylinositol 4,5-bisphosphate 3-kinase catalytic subunit alpha isoform (Homo sapiens, UniProt P42336)
Experimental: as §1

Measured: IC50

Chain of Phosphatidylinositol 4,5-bisphosphate 3-kinase catalytic subunit gamma isoform (P48736 whole entry, canonical isoform): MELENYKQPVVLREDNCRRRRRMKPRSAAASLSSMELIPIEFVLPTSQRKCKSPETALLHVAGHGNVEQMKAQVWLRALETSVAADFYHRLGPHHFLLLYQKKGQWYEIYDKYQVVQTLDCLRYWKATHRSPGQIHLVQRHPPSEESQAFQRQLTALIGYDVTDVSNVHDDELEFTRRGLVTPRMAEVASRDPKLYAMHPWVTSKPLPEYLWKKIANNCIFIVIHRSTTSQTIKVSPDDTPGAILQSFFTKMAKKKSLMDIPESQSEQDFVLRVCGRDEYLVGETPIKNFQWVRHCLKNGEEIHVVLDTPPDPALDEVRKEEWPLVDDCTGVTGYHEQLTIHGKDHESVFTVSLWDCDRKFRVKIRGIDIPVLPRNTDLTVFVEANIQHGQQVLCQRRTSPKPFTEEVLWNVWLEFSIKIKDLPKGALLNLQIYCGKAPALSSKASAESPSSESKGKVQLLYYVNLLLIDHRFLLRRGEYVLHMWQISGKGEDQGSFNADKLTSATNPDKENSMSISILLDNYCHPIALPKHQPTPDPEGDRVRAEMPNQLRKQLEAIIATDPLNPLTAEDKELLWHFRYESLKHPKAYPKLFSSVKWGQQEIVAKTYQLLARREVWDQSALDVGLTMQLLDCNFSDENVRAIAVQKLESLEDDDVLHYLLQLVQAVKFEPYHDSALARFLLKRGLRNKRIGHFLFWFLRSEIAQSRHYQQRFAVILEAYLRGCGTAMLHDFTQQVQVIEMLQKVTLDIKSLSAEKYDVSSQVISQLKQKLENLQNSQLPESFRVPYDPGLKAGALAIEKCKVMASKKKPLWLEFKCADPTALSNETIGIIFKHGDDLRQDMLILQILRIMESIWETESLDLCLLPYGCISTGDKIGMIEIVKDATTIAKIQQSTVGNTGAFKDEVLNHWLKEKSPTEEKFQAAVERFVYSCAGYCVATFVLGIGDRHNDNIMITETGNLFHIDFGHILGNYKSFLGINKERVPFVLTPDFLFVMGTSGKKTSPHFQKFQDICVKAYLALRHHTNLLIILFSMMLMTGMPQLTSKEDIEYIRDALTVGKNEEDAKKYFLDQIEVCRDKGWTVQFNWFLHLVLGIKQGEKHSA
Chain of Phosphatidylinositol 4,5-bisphosphate 3-kinase catalytic subunit beta isoform (P42338 whole entry, canonical isoform): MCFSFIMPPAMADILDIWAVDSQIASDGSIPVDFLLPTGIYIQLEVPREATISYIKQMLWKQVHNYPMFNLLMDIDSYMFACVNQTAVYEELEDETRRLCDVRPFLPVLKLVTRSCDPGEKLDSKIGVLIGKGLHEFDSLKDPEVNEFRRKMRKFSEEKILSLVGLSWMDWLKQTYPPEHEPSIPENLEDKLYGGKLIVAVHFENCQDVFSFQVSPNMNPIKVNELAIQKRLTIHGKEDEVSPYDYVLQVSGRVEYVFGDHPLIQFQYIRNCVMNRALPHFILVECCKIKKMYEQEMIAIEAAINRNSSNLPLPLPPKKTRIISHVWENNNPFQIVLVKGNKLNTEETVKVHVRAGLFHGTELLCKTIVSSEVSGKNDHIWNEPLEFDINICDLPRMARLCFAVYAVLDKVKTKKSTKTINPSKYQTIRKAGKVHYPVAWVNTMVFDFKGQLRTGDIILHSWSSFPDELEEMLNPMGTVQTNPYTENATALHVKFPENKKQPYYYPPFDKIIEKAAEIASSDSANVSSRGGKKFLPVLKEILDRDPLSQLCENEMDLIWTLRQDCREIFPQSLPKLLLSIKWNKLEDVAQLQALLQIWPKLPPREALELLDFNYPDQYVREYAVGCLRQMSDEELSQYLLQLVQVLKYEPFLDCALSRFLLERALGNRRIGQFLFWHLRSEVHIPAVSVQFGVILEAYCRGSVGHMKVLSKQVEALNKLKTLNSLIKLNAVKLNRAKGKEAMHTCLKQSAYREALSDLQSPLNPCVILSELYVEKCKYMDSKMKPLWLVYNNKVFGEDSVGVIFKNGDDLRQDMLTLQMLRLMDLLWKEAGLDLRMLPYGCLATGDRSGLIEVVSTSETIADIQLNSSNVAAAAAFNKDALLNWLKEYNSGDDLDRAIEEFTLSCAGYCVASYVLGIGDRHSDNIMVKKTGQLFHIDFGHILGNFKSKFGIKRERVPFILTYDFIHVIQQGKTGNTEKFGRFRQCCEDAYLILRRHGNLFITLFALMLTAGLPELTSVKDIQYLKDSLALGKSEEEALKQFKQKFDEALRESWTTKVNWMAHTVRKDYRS
Chain of Phosphatidylinositol 4,5-bisphosphate 3-kinase catalytic subunit alpha isoform (P42336 whole entry, canonical isoform): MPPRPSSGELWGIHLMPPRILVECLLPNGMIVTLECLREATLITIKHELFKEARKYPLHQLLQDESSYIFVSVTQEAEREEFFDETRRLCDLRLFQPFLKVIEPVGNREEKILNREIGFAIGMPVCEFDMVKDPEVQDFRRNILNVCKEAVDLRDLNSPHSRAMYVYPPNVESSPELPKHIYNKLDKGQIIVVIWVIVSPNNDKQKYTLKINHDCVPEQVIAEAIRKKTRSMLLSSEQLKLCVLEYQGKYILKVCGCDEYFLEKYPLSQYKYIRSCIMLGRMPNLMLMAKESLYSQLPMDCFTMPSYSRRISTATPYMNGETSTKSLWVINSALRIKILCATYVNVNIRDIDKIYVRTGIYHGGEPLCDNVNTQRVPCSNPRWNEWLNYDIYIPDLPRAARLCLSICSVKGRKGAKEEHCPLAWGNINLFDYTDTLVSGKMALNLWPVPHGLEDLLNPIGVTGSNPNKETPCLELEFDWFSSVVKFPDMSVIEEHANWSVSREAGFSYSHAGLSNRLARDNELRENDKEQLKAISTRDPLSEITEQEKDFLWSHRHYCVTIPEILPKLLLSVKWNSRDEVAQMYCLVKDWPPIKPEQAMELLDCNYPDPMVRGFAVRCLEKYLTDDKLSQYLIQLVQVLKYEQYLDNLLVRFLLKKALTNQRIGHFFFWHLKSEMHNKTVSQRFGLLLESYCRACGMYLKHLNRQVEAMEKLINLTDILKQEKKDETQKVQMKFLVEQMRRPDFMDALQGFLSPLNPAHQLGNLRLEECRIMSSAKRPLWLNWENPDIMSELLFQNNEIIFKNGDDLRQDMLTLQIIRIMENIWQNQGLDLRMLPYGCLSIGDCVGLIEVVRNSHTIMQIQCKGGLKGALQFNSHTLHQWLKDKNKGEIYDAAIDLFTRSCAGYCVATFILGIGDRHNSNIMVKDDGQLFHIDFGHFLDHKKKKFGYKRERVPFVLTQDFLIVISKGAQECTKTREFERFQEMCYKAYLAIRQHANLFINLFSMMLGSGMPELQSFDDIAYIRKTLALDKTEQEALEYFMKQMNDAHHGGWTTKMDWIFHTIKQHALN

Cc1c(-c2ccc3ncc(C(=O)N4CCOCC4)n3c2)ccc2oc(N)nc12 [US11547697, Compound 369]
> 10 µM: all assays above

CC(C)N1CCN(c2cnc3ccc(-c4ccc5oc(N)nc5c4)cc3n2)C(=O)C1 [US11547697, Compound 392]
> 10 µM: all assays above

C[C@H]1CN(c2cnc3scc(-c4ccc5oc(N)nc5c4)c3c2)CCN1 [US11547697, Compound 399]
> 10 µM: all assays above

Nc1nc2cc(-c3nc4cc(-c5cccnc5)cnc4s3)ccc2o1 [US11547697, Compound 402]
> 10 µM: all assays above

Nc1nc2cc(-c3ccc4nc(N)c(N5CC(N6CCOCC6)C5)nc4c3)ccc2o1 [US11547697, Compound 404]
> 10 µM: all assays above

CS(=O)(=O)Nc1nc2cc(-c3ccc4ncc(C(=O)N5CCOCC5)n4c3)ccc2o1 [US11547697, Compound 405]
> 10 µM: all assays above

CN1CCC(Nc2nc3cc(-c4ccc5ncc(C(=O)N6CCOCC6)n5c4)ccc3o2)CC1 [US11547697, Compound 408]
> 10 µM: all assays above

CC(=O)n1nc(N)c2ccc(-c3ccc4oc(N)nc4c3)cc21 [US11547697, Compound 426]
> 10 µM: all assays above

Nc1nc2cc(-c3ccc4[nH]nc(N)c4c3)ccc2o1 [US11547697, Compound 427]
> 10 µM: all assays above

COc1ccc(CNc2n[nH]c3cc(-c4ccc5oc(N)nc5c4)ccc23)cc1 [US11547697, Compound 429]
> 10 µM: all assays above

CC(=O)Nc1n[nH]c2ccc(-c3ccc4oc(N)nc4c3)cc12 [US11547697, Compound 431]
> 10 µM: all assays above

O=C(c1cnc2ccc(-c3cccc(S(=O)(=O)Nc4ccccc4)c3)cn12)N1CCOCC1 [US11547697, Compound 440]
> 10 µM: all assays above

O=C(c1cnc2ccc(-c3cccc(S(=O)(=O)Nc4cc(F)ccc4F)c3)cn12)N1CCOCC1 [US11547697, Compound 441]
> 10 µM: all assays above

CNS(=O)(=O)c1cccc(-c2ccc3ncc(C(=O)N4CCOCC4)n3c2)c1 [US11547697, Compound 442]
> 10 µM: all assays above

CS(=O)(=O)Nc1cccc(-c2ccc3ncc(C(=O)N4CCOCC4)n3c2)c1 [US11547697, Compound 443]
> 10 µM: all assays above

CNS(=O)(=O)c1cc(-c2ccc3ncc(C(=O)N4CCOCC4)n3c2)ccc1OC [US11547697, Compound 445]
> 10 µM: all assays above

COc1ccc(-c2ccc3ncc(C(=O)N4CCOCC4)n3c2)cc1NS(C)(=O)=O [US11547697, Compound 456]
> 10 µM: all assays above

Nc1n[nH]c2cc(-c3ccc4ncc(C(=O)N5CCOCC5)n4c3)ccc12 [US11547697, Compound 487]
> 10 µM: all assays above

Nc1noc2cc(-c3ccc4ncc(C(=O)N5CCOCC5)n4c3)ccc12 [US11547697, Compound 488]
> 10 µM: all assays above

Nc1n[nH]c2c(-c3ccc4ncc(C(=O)N5CCOCC5)n4c3)cccc12 [US11547697, Compound 490]
> 10 µM: all assays above

Nc1noc2c(-c3ccc4ncc(C(=O)N5CCOCC5)n4c3)cccc12 [US11547697, Compound 491]
> 10 µM: all assays above

O=C(c1cnc2ccc(-c3ccc4c(Nc5ccccc5)nsc4c3)cn12)N1CCOCC1 [US11547697, Compound 505]
> 10 µM: all assays above

Cc1cc2ncc(C(=O)N3CCOCC3)n2cc1-c1ccc2oc(N)nc2c1 [US11547697, Compound 507]
> 10 µM: all assays above

O=C(c1cnc2ccc(-c3ccc4c(Nc5ccccc5)noc4c3)cn12)N1CCOCC1 [US11547697, Compound 509]
> 10 µM: all assays above

CC(C)N1CCC(n2cnc3ccc(-c4cncc(NS(C)(=O)=O)c4)cc3c2=O)CC1 [US11547697, Compound 520]
> 10 µM: all assays above

From BindingDB's records for patent US11547697 (Millennium Pharmaceuticals, 2023)
